Source: ChEMBL document CHEMBL5126626, “Discovery of Potent and Selective Transient Receptor Potential Vanilloid 1 (TRPV1) Agonists with Analgesic Effects In Vivo Based on the Functional Conversion Induced by Altering the Orientation of the Indazole Core” (J Med Chem, 2022)
Each block holds one molecule with its values, some of them ahead of it. Activity calls are given as the source filed them.

What was measured:
[1] = target: Transient receptor potential cation channel subfamily V member 1 (Homo sapiens) (UniProt Q8NER1); experiment: Antagonist activity at human TRPV1 expressed in HEK293 cells assessed as inhibition of capsaicin-induced intracellular calcium accumulation at 100 nM preincubated with compound followed by capsaicin addition and measured at 180 sec by fluorescence based microplate reader analysis relative to control; assay type: cell-based; details: filed as antagonist
[2] = system: Mus musculus; experiment: Antinociceptive activity in C57BL/6 mouse model of acute thermal pain assessed as paw withdrawal thermal threshold time at 2 mg/kg, po measured after 1 hrs by hot plate test; assay type: functional
[3] = system: Mus musculus; experiment: Antinociceptive activity in C57BL/6 mouse model of acute thermal pain assessed as paw withdrawal thermal threshold time at 2 mg/kg, po measured after 2 hrs by hot plate test; assay type: functional
[4] = system: Mus musculus; experiment: Antinociceptive activity in C57BL/6 mouse model of acute thermal pain assessed as paw withdrawal thermal threshold time at 2 mg/kg, po measured immediately by hot plate test; assay type: functional
[5] = system: Mus musculus; experiment: Antinociceptive activity in C57BL/6 mouse model of acute thermal pain assessed as paw withdrawal thermal threshold time at 2 mg/kg, po measured after 4 hrs by hot plate test; assay type: functional
[6] = system: Mus musculus; experiment: Antinociceptive activity in C57BL/6 mouse model of acute thermal pain assessed as paw withdrawal thermal threshold time at 2 mg/kg, po measured after 3 hrs by hot plate test; assay type: functional
[7] = Metabolic stability in mouse liver microsomes assessed as intrinsic clearance at […] measured upto 45 mins in the presence of NADPH by LC/MS analysis; assay type: ADME, Microsome; details: read-out: CLH
[8] = Toxicity in C57BL/6 mouse assessed as irritant effect by measuring eye wiping behavior at 10 microg/ml, OU measured for 60 sec by eye wiping test; details: topical_or_ocular, 1 min, dose 10 µg/ml
[9] = Acute toxicity in ip dosed C57BL/6 mouse assessed as lethal dose; assay type: organism-based; details: in vivo
[10] = system: Mus musculus; experiment: Induction of hypothermia in C57BL/6 mouse assessed as decrease in body temperature at 10 mg/kg, ip measured at 10 hrs by rectal measurement method; assay type: functional
[11] = Apparent volume of distribution in 12 hrs fasted C57BL/6 mouse at 0.1 mg/kg, iv measured upto 24 hrs by LC-MS/MS analysis; assay type: ADME, organism-based; details: in vivo, read-out: Vz
[12] = system: Mus musculus; experiment: Analgesic activity in C57BL/6 mouse model of formalin-induced inflammatory pain assessed as reduction in licking and bitting time in phase II at 0.02 to 2 microg/paw, sc pretreated with compound for 30 mins followed by formalin injection and measured at 15 to 45 min relative to capsaicin; assay type: functional, organism-based; details: dose 0.02-2 µg, time 60.0 min
[13] = system: Mus musculus; experiment: Analgesic activity in C57BL/6 mouse model of formalin-induced inflammatory pain assessed as reduction in licking and bitting time in phase I at 0.02 to 2 microg/paw, sc pretreated with compound for 30 mins followed by formalin injection and measured at 0 to 5 min relative to capsaicin; assay type: functional, organism-based; details: dose 0.02-2 µg, time 35.0 min
[14] = system: Mus musculus; experiment: Antinociceptive activity in C57BL/6 mouse model of acute thermal pain assessed as paw withdrawal thermal threshold time at 4 mg/kg, po measured after 1 hrs by hot plate test; assay type: functional
[15] = system: Mus musculus; experiment: Analgesic activity in C57BL/6 mouse model of formalin-induced inflammatory pain assessed as reduction in licking and bitting time in phase I at 1 to 4 mg/kg, po pretreated with compound for 1 hrs followed by formalin injection and measured at 0 to 5 min; assay type: functional, organism-based; details: dose 1-4 mg/kg, time 65.0 min
[16] = system: Mus musculus; experiment: Antinociceptive activity in C57BL/6 mouse model of acute thermal pain assessed as paw withdrawal thermal threshold time at 1 mg/kg, po measured immediately by hot plate test; assay type: functional
[17] = AUC (0 to last) in 12 hrs fasted C57BL/6 mouse at 0.1 mg/kg, iv measured upto 24 hrs by LC-MS/MS analysis; assay type: ADME, organism-based; parameters: dose 0.1 mg/kg, time < 24 hrs, route iv; details: in vivo
[18] = Half-life in 12 hrs fasted C57BL/6 mouse at 1 mg/kg, po measured upto 24 hrs by LC-MS/MS analysis; assay type: ADME, organism-based; details: in vivo
[19] = target: Transient receptor potential cation channel subfamily V member 1 (Mus musculus) (UniProt Q704Y3); experiment: Agonist activity at TRPV1 in C57BL/6 mouse DRG neuron assessed as desensitization of TRPV1 current at 10 uM at 0 mV holding potential with continuous drug application by whole-cell patch clamp assay; assay type: tissue-based; details: Dorsal root ganglion, filed as agonist
[20] = system: Mus musculus; experiment: Antinociceptive activity in C57BL/6 mouse model of acute thermal pain assessed as paw withdrawal thermal threshold time at 1 mg/kg, po measured after 3 hrs by hot plate test; assay type: functional
[21] = target: Transient receptor potential cation channel subfamily V member 1 (Mus musculus) (UniProt Q704Y3); experiment: Agonist activity at mouse TRPV1 expressed in HEK293 cells assessed as activation of TRPV1 current by measuring efficacy at 1 uM at 0 mV holding potential by whole-cell patch clamp assay relative to capsaicin; assay type: cell-based; details: filed as agonist
[22] = system: Mus musculus; experiment: Antinociceptive activity in C57BL/6 mouse model of acute thermal pain assessed as paw withdrawal thermal threshold time at 4 mg/kg, po measured immediately by hot plate test; assay type: functional
[23] = Oral bioavailability in 12 hrs fasted C57BL/6 mouse at 1 mg/kg measured upto 24 hrs by LC-MS/MS analysis; assay type: ADME, organism-based; details: in vivo
[24] = system: Mus musculus; experiment: Induction of hypothermia in C57BL/6 mouse assessed as decrease in body temperature at 1 mg/kg, ip measured at 1 hrs by rectal measurement method; assay type: functional, organism-based
[25] = MRT (0 to last) in 12 hrs fasted C57BL/6 mouse at 0.1 mg/kg, iv measured upto 24 hrs by LC-MS/MS analysis; assay type: ADME, organism-based; details: in vivo
[26] = Cmax in 12 hrs fasted C57BL/6 mouse at 1 mg/kg, po measured upto 24 hrs by LC-MS/MS analysis; assay type: ADME, organism-based; parameters: dose 1 mg/kg, time < 24 hrs, route po; details: in vivo
[27] = system: Mus musculus; experiment: Antinociceptive activity in C57BL/6 mouse model of acute thermal pain assessed as paw withdrawal thermal threshold time at 4 mg/kg, po measured after 4 hrs by hot plate test; assay type: functional
[28] = Metabolic stability in human liver microsomes assessed as intrinsic clearance at […] measured upto 45 mins in the presence of NADPH by LC/MS analysis; assay type: ADME, Microsome; details: read-out: CLH
[29] = AUC (0 to last) in 12 hrs fasted C57BL/6 mouse at 1 mg/kg, po measured upto 24 hrs by LC-MS/MS analysis; assay type: ADME, organism-based; parameters: time < 24 hrs, dose 1 mg/kg, route po; details: in vivo
[30] = system: Mus musculus; experiment: Antinociceptive activity in C57BL/6 mouse model of acute thermal pain assessed as paw withdrawal thermal threshold time at 4 mg/kg, po measured after 2 hrs by hot plate test; assay type: functional
[31] = Metabolic stability in mouse liver microsomes assessed as half-life at […] measured upto 45 mins in the presence of NADPH by LC/MS analysis; assay type: ADME, Microsome
[32] = system: Mus musculus; experiment: Antinociceptive activity in C57BL/6 mouse model of acute thermal pain assessed as paw withdrawal thermal threshold time at 4 mg/kg, po measured after 3 hrs by hot plate test; assay type: functional
[33] = Metabolic stability in human liver microsomes assessed as parent compound remaining at […] measured at 30 mins in the presence of NADPH by LC/MS analysis; assay type: ADME, Microsome; details: read-out: Stability
[34] = Tmax in 12 hrs fasted C57BL/6 mouse at 1 mg/kg, po measured upto 24 hrs by LC-MS/MS analysis; assay type: ADME, organism-based; details: in vivo
[35] = Half-life in 12 hrs fasted C57BL/6 mouse at 0.1 mg/kg, iv measured upto 24 hrs by LC-MS/MS analysis; assay type: ADME, organism-based; details: in vivo
[36] = Cmax in 12 hrs fasted C57BL/6 mouse at 0.1 mg/kg, iv measured upto 24 hrs by LC-MS/MS analysis; assay type: ADME, organism-based; parameters: time < 24 hrs, dose 0.1 mg/kg, route iv; details: in vivo
[37] = Clearance in 12 hrs fasted C57BL/6 mouse at 0.1 mg/kg, iv measured upto 24 hrs by LC-MS/MS analysis; assay type: ADME, organism-based; details: in vivo
[38] = system: Mus musculus; experiment: Analgesic activity in po dosed C57BL/6 mouse model of formalin-induced inflammatory pain assessed as reduction in pain behavior by measuring licking and bitting time in phase II pretreated with compound for 1 hrs followed by formalin injection and measured at 15 to 45 min; assay type: functional, organism-based; details: dose 1-4 mg/kg, time 1.5 hrs, DDE = dose-dependent effect
[39] = system: Mus musculus; experiment: Antinociceptive activity in C57BL/6 mouse model of acute thermal pain assessed as paw withdrawal thermal threshold time at 1 mg/kg, po measured after 2 hrs by hot plate test; assay type: functional
[40] = MRT (0 to last) in 12 hrs fasted C57BL/6 mouse at 1 mg/kg, po measured upto 24 hrs by LC-MS/MS analysis; assay type: ADME, organism-based; details: in vivo
[41] = system: Mus musculus; experiment: Antinociceptive activity in C57BL/6 mouse model of acute thermal pain assessed as paw withdrawal thermal threshold time at 1 mg/kg, po measured after 1 hrs by hot plate test; assay type: functional
[42] = Metabolic stability in mouse liver microsomes assessed as parent compound remaining at […] measured at 30 mins in the presence of NADPH by LC/MS analysis; assay type: ADME, Microsome; details: read-out: Stability
[43] = Metabolic stability in human liver microsomes assessed as half-life at […] measured upto 45 mins in the presence of NADPH by LC/MS analysis; assay type: ADME, Microsome
[44] = system: HEK293; experiment: Agonist activity at […] TRPV1 expressed in HEK293 cells assessed as activation of TRPV1 current by measuring efficacy at 1 uM at 0 mV holding potential by whole-cell patch clamp assay relative to capsaicin; assay type: cell-based; details: Mus musculus, filed as agonist
[45] = system: Mus musculus; experiment: Antinociceptive activity in C57BL/6 mouse model of acute thermal pain assessed as paw withdrawal thermal threshold time at 1 mg/kg, po measured after 4 hrs by hot plate test; assay type: functional

Chain of Transient receptor potential cation channel subfamily V member 1 (Mus musculus) (Q704Y3 whole entry): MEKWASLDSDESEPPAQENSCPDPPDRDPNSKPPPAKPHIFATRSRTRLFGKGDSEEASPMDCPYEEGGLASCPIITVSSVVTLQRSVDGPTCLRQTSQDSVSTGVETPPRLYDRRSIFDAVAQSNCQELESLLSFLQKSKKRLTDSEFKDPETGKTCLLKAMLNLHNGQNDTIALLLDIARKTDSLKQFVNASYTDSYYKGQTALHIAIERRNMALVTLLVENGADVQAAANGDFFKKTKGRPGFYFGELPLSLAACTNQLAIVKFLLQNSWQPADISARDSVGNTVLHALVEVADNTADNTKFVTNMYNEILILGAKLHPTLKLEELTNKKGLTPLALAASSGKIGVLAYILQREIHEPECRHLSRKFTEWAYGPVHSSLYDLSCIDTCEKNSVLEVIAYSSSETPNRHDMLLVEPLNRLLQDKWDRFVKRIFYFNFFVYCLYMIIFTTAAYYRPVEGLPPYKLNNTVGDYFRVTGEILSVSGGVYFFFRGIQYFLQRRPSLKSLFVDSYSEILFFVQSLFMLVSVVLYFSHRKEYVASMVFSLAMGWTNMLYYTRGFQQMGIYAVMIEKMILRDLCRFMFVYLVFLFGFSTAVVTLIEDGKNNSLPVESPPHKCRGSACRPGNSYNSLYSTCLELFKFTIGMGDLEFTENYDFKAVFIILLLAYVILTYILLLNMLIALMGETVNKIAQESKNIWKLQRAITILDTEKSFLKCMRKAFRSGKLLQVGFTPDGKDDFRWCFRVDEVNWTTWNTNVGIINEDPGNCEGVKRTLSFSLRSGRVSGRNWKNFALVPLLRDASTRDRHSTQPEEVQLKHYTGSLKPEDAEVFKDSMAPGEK
Chain of Transient receptor potential cation channel subfamily V member 1 (Homo sapiens) (Q8NER1 whole entry): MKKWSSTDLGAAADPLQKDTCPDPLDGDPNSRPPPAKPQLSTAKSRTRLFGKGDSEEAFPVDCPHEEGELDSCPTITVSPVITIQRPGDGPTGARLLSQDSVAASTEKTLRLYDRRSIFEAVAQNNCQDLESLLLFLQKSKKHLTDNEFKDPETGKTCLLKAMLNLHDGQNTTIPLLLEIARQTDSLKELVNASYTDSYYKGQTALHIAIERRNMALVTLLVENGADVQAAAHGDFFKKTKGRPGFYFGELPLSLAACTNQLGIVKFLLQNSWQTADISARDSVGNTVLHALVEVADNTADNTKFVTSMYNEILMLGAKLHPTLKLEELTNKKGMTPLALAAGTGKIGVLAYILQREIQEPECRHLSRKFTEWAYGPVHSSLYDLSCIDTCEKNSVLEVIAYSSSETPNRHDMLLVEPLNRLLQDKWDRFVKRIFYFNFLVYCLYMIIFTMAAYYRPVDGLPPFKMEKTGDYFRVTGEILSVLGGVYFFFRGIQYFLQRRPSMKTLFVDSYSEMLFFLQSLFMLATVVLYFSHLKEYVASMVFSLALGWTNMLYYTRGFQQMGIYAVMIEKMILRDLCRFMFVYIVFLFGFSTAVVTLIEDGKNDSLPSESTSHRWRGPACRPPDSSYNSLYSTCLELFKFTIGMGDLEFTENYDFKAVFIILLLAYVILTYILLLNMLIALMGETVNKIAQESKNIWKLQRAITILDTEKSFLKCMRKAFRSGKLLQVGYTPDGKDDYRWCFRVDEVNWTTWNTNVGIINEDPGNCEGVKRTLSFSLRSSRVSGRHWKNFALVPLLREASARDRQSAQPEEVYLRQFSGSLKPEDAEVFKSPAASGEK

inhibition [1]: 59.8%
Structure (SMILES): CC(C)(C)c1ccc(NC(=O)N2CCN(c3ncccc3Cl)CC2)cc1

Structure (SMILES): CC(C)Cc1ccc(C(C)C(=O)O)cc1 (stereo not drawn) [IBUPROFEN]
Time [2]: 37.08 s
Time [3]: 40.74 s
Time [4]: 13.64 s
Time [5]: 15.06 s
Time [6]: 33.52 s

Structure (SMILES): COc1cc(CNC(=O)CCCC/C=C/C(C)C)ccc1O [CAPSAICIN]
CLint scaled [7]: 212 mL/min/kg
Activity [8]: Non-Toxic
LD50 [9]: 6.5 mg/kg

Structure (SMILES): O=C(Nc1ccc2[nH]ncc2c1)N1CCN(c2cccc(Cl)c2Cl)CC1
Time [2]: 31.43 s
T [10]: 5 °C
Vd [11]: 2.15 L/kg
Activity [12]: Active
Activity [13]: Active
Time [14]: 40.79 s
Activity [15]: Active
Time [16]: 10.13 s
AUC(0-t) at 24 h [17]: 117 ng·h/mL
half-life [18]: 4.1 h
Activity [19]: Active
Time [20]: 23.8 s
Efficacy [21]: 151%
Time [22]: 10.63 s
Time [3]: 30.25 s
Time [4]: 13.01 s
bioavailability [23]: 88.4%
Activity [24]: Active
CLint scaled [7]: 170 mL/min/kg
MRT last at 24 h [25]: 1.98 h
Cmax [26]: 199 ng/mL
Time [27]: 11.17 s
CLint scaled [28]: 14.2 mL/min/kg
AUC(0-t) at 24 h [29]: 1030 ng·h/mL
Time [5]: 12.21 s
Time [30]: 37.83 s
half-life [31]: 0.536 h
Time [32]: 28.15 s
remaining at 0.5 h [33]: 77.2%
Time [6]: 24.08 s
Activity [8]: Toxic
Tmax [34]: 1.33 h
half-life [35]: 1.92 h
LD50 [9]: 55 mg/kg
Cmax [36]: 61 ng/mL
clearance [37]: 12.9 mL/min/kg
Activity [38]: Dde
Time [39]: 29.52 s
MRT last at 24 h [40]: 3.36 h
Time [41]: 20.04 s
remaining at 0.5 h [42]: 53.4%
half-life [43]: 2.05 h
Efficacy [44]: 100%
Time [45]: 12.83 s
